Experiments:
Assay type in all cases: biochemical
[1] = biological target: T1, ENPP1 (Homo sapiens, UniProt P22413); assay: Indirect quantitation of 2',3'-cGAMP hydrolysis (AMP-Glo Assay kit); settings: cGAMP substrate; Ki from IC50 by Cheng-Prusoff; read-out: ENPP1 Inhibition -cGAMP: Ki
T1 sequence (P22413 1-925): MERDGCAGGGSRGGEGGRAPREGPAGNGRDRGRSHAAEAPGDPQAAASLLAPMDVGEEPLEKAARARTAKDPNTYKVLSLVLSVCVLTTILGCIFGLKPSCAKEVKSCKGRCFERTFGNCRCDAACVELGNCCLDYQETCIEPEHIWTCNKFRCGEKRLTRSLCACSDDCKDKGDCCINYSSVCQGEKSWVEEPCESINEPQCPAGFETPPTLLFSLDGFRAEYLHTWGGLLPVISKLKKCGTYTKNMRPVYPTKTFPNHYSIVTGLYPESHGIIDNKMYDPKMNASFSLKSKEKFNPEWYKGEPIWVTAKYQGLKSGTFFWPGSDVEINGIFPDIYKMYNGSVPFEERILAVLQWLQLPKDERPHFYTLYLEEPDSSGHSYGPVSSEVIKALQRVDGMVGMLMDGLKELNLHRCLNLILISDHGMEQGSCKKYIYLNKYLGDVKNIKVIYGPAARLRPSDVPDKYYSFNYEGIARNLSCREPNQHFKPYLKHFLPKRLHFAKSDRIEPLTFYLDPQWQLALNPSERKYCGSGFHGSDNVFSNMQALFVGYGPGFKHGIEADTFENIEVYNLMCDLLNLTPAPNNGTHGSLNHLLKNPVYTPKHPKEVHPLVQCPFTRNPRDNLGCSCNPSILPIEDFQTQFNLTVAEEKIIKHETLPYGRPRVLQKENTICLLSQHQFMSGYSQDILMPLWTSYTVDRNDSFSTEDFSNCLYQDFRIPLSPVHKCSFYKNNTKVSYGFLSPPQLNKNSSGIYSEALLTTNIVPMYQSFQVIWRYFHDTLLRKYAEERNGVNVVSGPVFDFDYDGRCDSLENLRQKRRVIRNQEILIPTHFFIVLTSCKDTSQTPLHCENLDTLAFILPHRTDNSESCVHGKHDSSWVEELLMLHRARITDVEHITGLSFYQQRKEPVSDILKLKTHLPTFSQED

[2] = biological target: T1, ENPP1; assay: ENPP1 enzyme assay with AMP-pNP substrate (hydrolysis of ATP analog); settings: AMP-pNP substrate (ATP analog); Ki from IC50 by Cheng-Prusoff; read-out: ENPP1 Inhibition _AMP-pNP: Ki
Procedure, shortened: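 Human recombinant ENPP1 (60 ng/well) with 300 µM AMP-pNP in 50 mM Tris-HCl pH 8.5, 250 mM NaCl, 0.5 mM CaCl2, 1 µM ZnCl2, 0.1% DMSO, 20 min at 37 °C.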

[3] = biological target: T1, ENPP1; assay: Substrate selectivity ratio, inhibition of cGAMP hydrolysis versus ATP hydrolysis; settings: ratio Ki AMP-pNP / Ki cGAMP
Description: The selectivity ratios for inhibition of cGAMP hydrolysis versus ATP hydrolysis were then calculated as follows: […]

Ki [1] [nM]	Ki [2] [nM]	Substrate Selectivity: Ki_AMP-pNP/Ki_cGAMP [3]	Compound
< 100	100 to 1000	>42	COc1ccc2c(-c3ccc4c(c3F)CN(S(N)(=O)=O)CC4)ccnc2c1 [Example 410, 8-fluoro-7-(7-methoxyquinolin-4-yl)-3,4-dihydroisoquinoline-2(1H)-sulfamide]
< 100	100 to 1000	28.2	COc1ccc2c(Oc3ccc(CS(N)(=O)=O)cc3)ccnc2c1 [Example 312, (4-((7-methoxyquinolin-4-yl)oxy)phenyl)methanesulfonamide]
100 to 1000	> 1000	>173	N#Cc1cnc2cc(OC(F)F)ccc2c1-c1ccc2c(c1)CN(S(N)(=O)=O)CC2 [Example 262, 7-(3-cyano-7-(difluoromethoxy)quinolin-4-yl)-3,4-dihydroisoquinoline-2(1H)-sulfonamide]
< 100	< 100	32	COc1ccc2c(Oc3ccc(S(N)(=O)=O)cc3)ccnc2n1 [Example 361, 4-(7-Methoxy-[1,8]naphthyridin-4-yl-oxy)-benzene sulfonamide]
< 100	100 to 1000	189.2	COc1cc2ncnc(-c3ccc(CNS(N)(=O)=O)cc3)c2cc1OC [Example 144, N-(4-(6,7-dimethoxyquinazolin-4-yl)benzyl)sulfamide]
< 100	> 1000	>53	COc1ccc2nccc(Oc3ccc(S(N)(=O)=O)cc3)c2c1 [Example 355, 4-((6-methoxyquinolin-4-yl)oxy)benzenesulfonamide]
< 100	> 1000	62.9	COc1cc2nccc(Nc3ccc(NS(=O)(=O)c4ccccc4)cc3)c2cc1OC [Example 153, N-(4-((6,7-dimethoxyquinolin-4-yl)amino)phenyl)benzenesulfonamide]
< 100	100 to 1000	19.5	COc1ccc2c(Oc3ccc(NS(N)(=O)=O)c(F)c3)ccnc2c1 [Example 297, N-(2-fluoro-4-((7-methoxyquinolin-4-yl)oxy)phenyl)sulfamide]
< 100	100 to 1000	>18	COc1ccc2c(-c3ccc(C(C)(C)NS(N)(=O)=O)cc3)ccnc2c1 [Example 357, N-(2-(4-(7-methoxyquinolin-4-yl)phenyl)propan-2-yl)sulfamide]
< 100	> 1000	> 38.6	Cn1cnc2nccc(-c3ccc4c(c3)CN(S(N)(=O)=O)CC4)c21 [Example 193, 7-(1-methyl-1H-imidazo[4,5-b]pyridin-7-yl)-3,4-dihydroisoquinoline-2(1H)-sulfonamide]
< 100	< 100	54.8	COc1cc2ncnc(N3CCC(CCC(=O)NO)CC3)c2cc1OC [Example 159, 3-(1-(6,7-dimethoxyquinazolin-4-yl)piperidin-4-yl)-N-hydroxypropanamide]
< 100	> 1000	>95	COc1cc(F)c2c(-c3ccc(CNS(N)(=O)=O)cc3)ccnc2c1 [Example 394, N-(4-(5-fluoro-7-methoxyquinolin-4-yl)benzyl)sulfamide]
< 100	100 to 1000	17.1	COc1cc2ncc(C#N)c(-c3ccc(CN(C4CC4)S(N)(=O)=O)cc3)c2cc1OC [Example 290, N-(4-(3-cyano-6,7-dimethoxyquinolin-4-yl)benzyl)-N-cyclopropylsulfamide]
100 to 1000	> 1000	>12.4	COc1cc2ncnc(Oc3ccc(NS(N)(=O)=O)cc3)c2cc1OC [Example 273, N-(4-((6,7-dimethoxyquinazolin-4-yl)oxy)phenyl)sulfamide]
< 100	100 to 1000	10.6	N#Cc1cnc2ccccc2c1N1CCC2(CC1)CCN(S(N)(=O)=O)C2 [Example 167, 8-(3-cyanoquinolin-4-yl) -2,8-diazaspiro [4.5] decane-2-sulfonamide]
100 to 1000	> 1000	>90.4	COc1ccc2c(-c3ccc(CN)cc3)c(C#N)cnc2c1 [Example 277, 4-(4-(aminomethyl)phenyl)-7-methoxyquinoline-3-carbonitrile]
< 100	> 1000	>35.9	COc1ccc2c(Oc3ccc4c(c3)CCCN4S(N)(=O)=O)ccnc2c1 [Example 319, 6-((7-methoxyquinolin-4-yl)oxy)-3,4-dihydroquinoline-1(2H)-sulfonamide]
100 to 1000	> 1000	>271	COc1cc(F)c2c(N3CCc4cc(NS(N)(=O)=O)ccc43)ccnc2c1 [Example 412, N-(1-(5-fluoro-7-methoxyquinolin-4-yl)indolin-5-yl)sulfamide]
< 100	< 100	5.4	COc1cc2ncc(C3CC3)c(-c3ccc4c(c3)CN(S(N)(=O)=O)CC4)c2cc1OC [Example 283, 7-(3-cyclopropyl-6,7-dimethoxyquinolin-4-yl)-3,4-dihydroisoquinoline-2(1H)-sulfonamide]
100 to 1000	> 1000	67.3	COc1cc2c(NCc3ccc(S(N)(=O)=O)cc3)ncnc2cn1 [Example 247, 4-(((6-methoxypyrido[3,4-d]pyrimidin-4-yl)amino)methyl)benzenesulfonamide]
< 100	> 1000	>32	COc1ccc2c(-c3ccc4c(c3)CN(S(N)(=O)=O)CC4)c(C)cnc2c1 [Example 371, 7-(7-methoxy-3-methylquinolin-4-yl)-3,4-dihydroisoquinoline-2(1H)-sulfonamide]
< 100	< 100	30.9	COc1ccc2c(Nc3ccc(NS(N)(=O)=O)cc3)ccnc2n1 [Example 231, N-(4-((7-methoxy-1,8-naphthyridin-4-yl)amino)phenyl)sulfamide]
< 100	100 to 1000	22.4	COc1ccc2ncnc(NCc3ccc(S(N)(=O)=O)cc3)c2c1 [Example 306, 4-(((6-methoxyquinazolin-4-yl)amino)methyl)benzenesulfonamide]
100 to 1000	> 1000	> 39.4	COc1cc2nccc(N3CCC(CCNS(N)(=O)=O)CC3)c2cn1 [Example 204, N-(2-(1-(7-methoxy-1,6-naphthyridin-4-yl)piperidin-4-yl)ethyl)sulfamide]
< 100	100 to 1000	50	COc1ccc2c(-c3ccc(C(C)NS(N)(=O)=O)cc3)ccnc2c1 (stereo not drawn) [Example 416, N-(1-(4-(7-methoxyquinolin-4-yl)phenyl)ethyl)sulfamide]
100 to 1000	> 1000	>216	COc1ccc2c(Oc3ccc(NS(=O)(=O)NN)cc3)ccnc2c1 [Example 362, N-(4-((7-methoxyquinolin-4-yl)oxy)phenyl)hydrazinesulfonamide]

From US20230183239A1, “ECTONUCLEOTIDE PYROPHOSPHATASE-PHOSPHODIESTERASE 1 (ENPP-1) INHIBITORS AND USES THEREOF” (AbbVie Inc., priority 2017, published 2023)
